Data published in paper PMC8806001 (ACS Pharmacology & Translational Science, 2022).

Key:
SARS-CoV-2 PL^pro [1] = target: T1, SARS-CoV-2 PL^pro (Severe acute respiratory syndrome coronavirus 2, UniProt P0DTD1); type: biochemical; conditions: 200 nM PL^pro, 5 mM DTT, pH 7.5, 30 °C; highest concentration 60 μM
SARS-CoV-2 PL^pro [2] = target: T1, SARS-CoV-2 PL^pro; assay: Thermal shift binding assay; conditions: effect on stability of PL^pro
MERS-CoV PL^pro = conditions: read-out: IC50 against MERS-CoV PL^pro; cited from earlier work
SARS-CoV PL^pro = conditions: read-out: IC50 against SARS-CoV PL^pro; cited from earlier work
SARS-CoV-2 PL^pro [3] = target: T1, SARS-CoV-2 PL^pro; assay: cell-based

Row | SMILES | Validation FRET IC50 (SARS-CoV-2 PL^pro [1]) | TSA binding result (in words) (SARS-CoV-2 PL^pro [2]) | IC50 (MERS-CoV PL^pro) [µM] | IC50 (SARS-CoV PL^pro) [µM] | FlipGFP EC50 (SARS-CoV-2 PL^pro [3]) | EC50 (SARS-CoV-2 PL^pro [3]; FlipGFP EC50) [µM] | Cytotoxicity in FlipGFP assay (in words) (293T cells)
1 | Sc1ncnc2nc[nH]c12 [6-mercaptopurine] | not active | not active | 26.9 | 21.6 | not active | – | –
2 | Nc1nc2nc[nH]c2c(=S)[nH]1 [6-thioguanine] | – | did not show binding | 24.4 | 5 | not active | – | –
3 | C[C@H]1COC2=C1C(=O)C(=O)c1c2ccc2c1CCCC2(C)C [Cryptotanshinone] | – | destabilization | – | – | not active | – | –
4 | Cc1cccc2c3c(ccc12)C1=C(C(=O)C3=O)[C@@H](C)CO1 [Dihydrotanshinone I] | – | did not bind | – | – | not active | – | –
5 | Cc1coc2c1C(=O)C(=O)c1c-2ccc2c1CCCC2(C)C [Tanshinone IIA] | – | denaturation of the protein (no melting peak) | – | – | not active | > 20 | –
6 | Cc1coc2c1C(=O)C(=O)c1c-2ccc2c(C)cccc12 [Tanshinone I] | – | destabilization | – | – | not active | – | –
7 | COCCn1c2c([n+](Cc3cnccn3)c1C)C(=O)c1ccccc1C2=O [YM155] | – | no effect | – | – | not conclusive | – | cytotoxic
